Measured values published in ChEMBL document CHEMBL1649310, “Complete nucleotide sequence of Klebsiella pneumoniae multidrug resistance plasmid pKP048, carrying blaKPC-2, blaDHA-1, qnrB4, and armA” (2010).
Values after ≈ are worked out from the molar mass of the structure shown.

Tested on: Escherichia coli
Experiment: Antimicrobial activity against Escherichia coli isolate CKP048 transconjugant harboring beta-lactamase KPC-2, DHA-1, qnrB4 and armA by Etest
Type: functional

Molecule | MIC [µg/mL]
C[C@@H](O)[C@H]1C(=O)N2C(C(=O)O)=C(S[C@@H]3CN[C@H](C(=O)Nc4cccc(C(=O)O)c4)C3)[C@H](C)[C@H]12 | 8 (≈ 16.8 µM)
NCC[C@H](O)C(=O)N[C@@H]1C[C@H](N)[C@@H](O[C@H]2O[C@H](CN)[C@@H](O)[C@H](O)[C@H]2O)[C@H](O)[C@H]1O[C@H]1O[C@H](CO)[C@@H](O)[C@H](N)[C@H]1O [AMIKACIN] | > 256
CO[C@@]1(NC(=O)Cc2cccs2)C(=O)N2C(C(=O)O)=C(COC(N)=O)CS[C@@H]21 [CEFOXITIN] | 128 (≈ 299 µM)
CC(C)(O/N=C(\C(=O)N[C@@H]1C(=O)N2C(C(=O)[O-])=C(C[n+]3ccccc3)CS[C@H]12)c1csc(N)n1)C(=O)O [CEFTAZIDIME] | 32 (≈ 58.5 µM)
C[C@@H](O)[C@H]1C(=O)N2C(C(=O)O)=C(SCCNC=N)C[C@H]12 [IMIPENEM ANHYDROUS] | 3 (≈ 10 µM)
C[C@@H](O)[C@H]1C(=O)N2C(C(=O)O)=C(S[C@@H]3CN[C@H](C(=O)N(C)C)C3)[C@H](C)[C@H]12 [MEROPENEM] | 2 (≈ 5.22 µM)
CN(C)c1cc(NC(=O)CNC(C)(C)C)c(O)c2c1C[C@H]1C[C@H]3[C@H](N(C)C)C(O)=C(C(N)=O)C(=O)[C@@]3(O)C(O)=C1C2=O [TIGECYCLINE] | 0.125 (≈ 0.213 µM)
COLISTIN | 0.38

Tested on: Escherichia coli
Experiment: Antimicrobial activity against lacZ-negative, Nalidixic acid-, rifampicin-resistant Escherichia coli EC600 by Etest in presence of beta-lactamase inhibitor Tazobactam
Type: functional

Molecule | MIC [µg/mL]
CCN1CCN(C(=O)N[C@@H](C(=O)N[C@@H]2C(=O)N3[C@@H]2SC(C)(C)[C@@H]3C(=O)O)c2ccccc2)C(=O)C1=O [PIPERACILLIN] | 2

Tested on: Klebsiella pneumoniae
Experiment: Antimicrobial activity against Klebsiella pneumoniae isolate 048 expressing beta-lactamase KPC-2, DHA-1, qnrB4 and armA by Etest
Type: functional

Molecule | MIC [µg/mL]
C[C@@H](O)[C@H]1C(=O)N2C(C(=O)O)=C(S[C@@H]3CN[C@H](C(=O)Nc4cccc(C(=O)O)c4)C3)[C@H](C)[C@H]12 | 32 (≈ 67.3 µM)
NCC[C@H](O)C(=O)N[C@@H]1C[C@H](N)[C@@H](O[C@H]2O[C@H](CN)[C@@H](O)[C@H](O)[C@H]2O)[C@H](O)[C@H]1O[C@H]1O[C@H](CO)[C@@H](O)[C@H](N)[C@H]1O [AMIKACIN] | > 256
CO[C@@]1(NC(=O)Cc2cccs2)C(=O)N2C(C(=O)O)=C(COC(N)=O)CS[C@@H]21 [CEFOXITIN] | 256 (≈ 599 µM)
CC(C)(O/N=C(\C(=O)N[C@@H]1C(=O)N2C(C(=O)[O-])=C(C[n+]3ccccc3)CS[C@H]12)c1csc(N)n1)C(=O)O [CEFTAZIDIME] | 96 (≈ 176 µM)
C[C@@H](O)[C@H]1C(=O)N2C(C(=O)O)=C(SCCNC=N)C[C@H]12 [IMIPENEM ANHYDROUS] | > 32
C[C@@H](O)[C@H]1C(=O)N2C(C(=O)O)=C(S[C@@H]3CN[C@H](C(=O)N(C)C)C3)[C@H](C)[C@H]12 [MEROPENEM] | > 32
CN(C)c1cc(NC(=O)CNC(C)(C)C)c(O)c2c1C[C@H]1C[C@H]3[C@H](N(C)C)C(O)=C(C(N)=O)C(=O)[C@@]3(O)C(O)=C1C2=O [TIGECYCLINE] | 0.38 (≈ 0.649 µM)
COLISTIN | 0.38

Tested on: Escherichia coli
Experiment: Antimicrobial activity against Escherichia coli isolate CKP048 transconjugant harboring beta-lactamase KPC-2, DHA-1, qnrB4 and armA by Etest in presence of beta-lactamase inhibitor Tazobactam
Type: functional

Molecule | MIC [µg/mL]
CCN1CCN(C(=O)N[C@@H](C(=O)N[C@@H]2C(=O)N3[C@@H]2SC(C)(C)[C@@H]3C(=O)O)c2ccccc2)C(=O)C1=O [PIPERACILLIN] | > 256

Tested on: Escherichia coli
Experiment: Antimicrobial activity against lacZ-negative, Nalidixic acid-, rifampicin-resistant Escherichia coli EC600 by Etest
Type: functional

Molecule | MIC [µg/mL]
C[C@@H](O)[C@H]1C(=O)N2C(C(=O)O)=C(S[C@@H]3CN[C@H](C(=O)Nc4cccc(C(=O)O)c4)C3)[C@H](C)[C@H]12 | 0.016 (≈ 0.0336 µM)
NCC[C@H](O)C(=O)N[C@@H]1C[C@H](N)[C@@H](O[C@H]2O[C@H](CN)[C@@H](O)[C@H](O)[C@H]2O)[C@H](O)[C@H]1O[C@H]1O[C@H](CO)[C@@H](O)[C@H](N)[C@H]1O [AMIKACIN] | 1 (≈ 1.71 µM)
CO[C@@]1(NC(=O)Cc2cccs2)C(=O)N2C(C(=O)O)=C(COC(N)=O)CS[C@@H]21 [CEFOXITIN] | 2 (≈ 4.68 µM)
CC(C)(O/N=C(\C(=O)N[C@@H]1C(=O)N2C(C(=O)[O-])=C(C[n+]3ccccc3)CS[C@H]12)c1csc(N)n1)C(=O)O [CEFTAZIDIME] | 0.064 (≈ 0.117 µM)
C[C@@H](O)[C@H]1C(=O)N2C(C(=O)O)=C(SCCNC=N)C[C@H]12 [IMIPENEM ANHYDROUS] | 0.25 (≈ 0.835 µM)
C[C@@H](O)[C@H]1C(=O)N2C(C(=O)O)=C(S[C@@H]3CN[C@H](C(=O)N(C)C)C3)[C@H](C)[C@H]12 [MEROPENEM] | 0.094 (≈ 0.245 µM)
CN(C)c1cc(NC(=O)CNC(C)(C)C)c(O)c2c1C[C@H]1C[C@H]3[C@H](N(C)C)C(O)=C(C(N)=O)C(=O)[C@@]3(O)C(O)=C1C2=O [TIGECYCLINE] | 0.125 (≈ 0.213 µM)
COLISTIN | 0.25

Tested on: Klebsiella pneumoniae
Experiment: Antimicrobial activity against Klebsiella pneumoniae isolate 048 expressing beta-lactamase KPC-2, DHA-1, qnrB4 and armA by Etest in presence of beta-lactamase inhibitor Tazobactam
Type: functional

Molecule | MIC [µg/mL]
CCN1CCN(C(=O)N[C@@H](C(=O)N[C@@H]2C(=O)N3[C@@H]2SC(C)(C)[C@@H]3C(=O)O)c2ccccc2)C(=O)C1=O [PIPERACILLIN] | > 256
